Measured values as given in patent publication US20210371463A1, “Modified Netrin-1 Peptides and Compositions for Cardioprotection” (The Regents of the University of California, priority 2018, published 2021).
Bridge positions count the residues as written; N and C are the ends. Ends that are not written are not given here. mini‑PEG = diethylene glycol

Tested on: mouse hearts subjected to ischemia/reperfusion (I/R) injury
Assay: Langendorff perfusion ischemia/reperfusion (I/R) injury, infarct size analysis (TTC staining)
Parameters: % MI Reduction: concentration or dose not given beside the values
Conditions: for % MI Reduction: vs. I/R Control; for % Improvement in MI Reduction: modified peptide vs. closest prior art peptide (V1-9aa, V2-10aa or V3-11aa); for Infarct size: fragments of prior art peptides, Control I/R 37.6±1.3%, Mean±SEM, p<0.001
Experimental: Male C57BL/6J mice (8-12 weeks old) were obtained from the Charles River Laboratories (Wilmington, Mass., USA). After anesthetized with intraperitoneal pentobarbitone (60 mg/kg), mouse hearts were harvested immediately and the aortas were cannulated with a 20-gauge stainless steel blunt needle and transferred to the Langendorff rig and perfused retrograde instantly with modified Krebs-Henseleit buffer (KHB) for 30 minutes as previously described. See Bouhidel et al. Front Biosci (Landmark Ed) 2014; 19:566-570, and Zhang et al., J Mol Cell Cardiol. 2010; 48:1060-1070. Then hearts were pre-perfused for 45 minutes with or without netrin-1 (100 ng/ml), or different peptide fragments at the same molar concentration 1.47 nmol/L as netrin-1, prior to being subjected to ischemia/reperfusion (I/R) injury (a 20-minute global ischemia followed by a 60-minute reperfusion with or without netrin-1 or different peptide fragments). Hearts were then harvested for analyses of infarct size. For post-conditioning treatment with peptide fragments, hearts underwent 40 minutes of KHB perfusion, 20 minutes of global ischemia, and a 60-minute reperfusion with different peptide fragments.
At the end of I/R protocol, hearts were sliced perpendicular to the long-axis of the heart at 1 mm intervals and stained with 1% triphenyl tetrazolium chloride (TTC) in PBS for 10 minutes at room temperature. After washing with PBS once, sections of the hearts will be fixed in 10% formalin overnight. The heart slices were then digitally photographed for planimetry using NIH Image 1.62. Infarct size is expressed as an infarct-to-risk zone ratio (the risk zone is the whole ventricular volume in this global ischemic model).
Densitometric data of western blotting was obtained by software Image J. Grouped data was analyzed by software Gradpad Prism δ. All values are expressed as Mean±SEM. Comparisons of more than two groups were performed using a one way ANOVA analysis with Newman-Keuls test as a post-hoc test. Statistical significance is set as p<0.05.

[1] = Table 2, modified netrin-1 peptides, I/R Control 43.1625, p < 0.001 vs. Control
[2] = Table 2, modified netrin-1 peptides
[3] = Table 1, prior art peptides, I/R Control 37.6

Substance	Infarct Size Mean (%) [1]	% MI Reduction [2]	% Improvement in MI Reduction	Infarct Size Mean (%) [3]	% MI Reduction (Table 1, prior art peptides)	Infarct size
(mini-PEG)-CDCRHNTAG ({mini‑PEG}-CDCRHNTAG; cysteine pairing not given here) [V1P]	10.0100%	77%	(77 − 55)/55 = 40%	–	–	–
(mini-PEG)-CLNCRHNTAG ({mini‑PEG}-CLNCRHNTAG; cysteine pairing not given here) [V2P]	18.3315%	58%	(58 − 51)/51 = 14%	–	–	–
(mini-PEG)-CPCKDGVTIGIT ({mini‑PEG}-CPCKDGVTIGIT; cysteine pairing not given here) [V3P]	12.9700%	70%	–	–	–	–
CDCRHNTAG (disulfide 1-3) [V1C]	11.2700%	74%	(74 − 55)/55 = 35%	–	–	–
CDCRHNTAG (not fully specified (bridges); cysteine pairing not given here) [V1-9aa, reference compound]	–	–	–	16.8%	55%	16.8±2.2%
CLNCRHNTAG (Peptide based on human Netrin-1 sequence) [V2-10aa, reference compound]	–	–	–	18.6%	51%	18.6±1.7%
CPCKDGVTGIT (Peptide based on human Netrin-1 sequence) [V3-11aa, reference compound]	–	–	–	16.7%	56%	16.7±3.0%
SDCRHNTAG (Peptide based on human Netrin-1 sequence) [V1S]	12.7750%	71%	(71 − 55)/55 = 29%	–	–	–
TDCRHNTAG [V1T]	15.4650%	64%	(64 − 55)/55 = 16%	–	–	–
